In US9834527B2, “Macrocyclic urea derivatives as inhibitors of TAFIa, their preparation and their use as pharmaceuticals” (SANOFI, priority 2013, dated 2017):
Read-outs that look alike come from different tables or passages of the source.

Columns and labels:
[1] = target: T1, TAFIa (Homo sapiens, UniProt Q96IY4); assay: TAFIa inhibition (Actichrome plasma TAFI Activity Kit, 15 minutes pre-incubation); format: biochemical; settings: 15 minutes pre-incubation at room temperature
T1 construct: purchased American Diagnostica 874TAFIA
T1 sequence (Q96IY4 115-423): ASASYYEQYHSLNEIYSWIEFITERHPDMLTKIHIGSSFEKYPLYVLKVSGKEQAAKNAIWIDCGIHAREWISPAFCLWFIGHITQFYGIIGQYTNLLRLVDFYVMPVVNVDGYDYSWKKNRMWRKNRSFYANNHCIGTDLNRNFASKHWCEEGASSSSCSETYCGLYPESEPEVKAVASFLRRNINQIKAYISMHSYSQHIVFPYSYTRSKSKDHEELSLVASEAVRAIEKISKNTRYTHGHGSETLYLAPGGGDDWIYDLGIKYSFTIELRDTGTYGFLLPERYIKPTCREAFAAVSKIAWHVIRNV
Procedure: The prepared substances were tested for TAFIa inhibition using the Actichrome plasma TAFI Activity Kit from American Diagnostica (Pr. No. 874). This entailed adding 28 μl of assay buffer (20 mM Hepes, 150 mM NaCl, pH 7.4) and 10 μl of TAFIa (American Diagnostica Pr. No. 874TAFIA; 2.5 μg/ml) to 2 μl of 2.5 mM DMSO solution of the substance and incubating in a 96 half-well microtiter plate at room temperature for 15 minutes. The enzyme reaction was started by adding 10 μl of TAFIa developer (prediluted 1:2 with assay buffer). The time course of the reaction was followed at 420 nm in a microtiter plate reader (SpectraMax plus 384; Molecular Devices) for 15 minutes.
The IC50 values were calculated from the averaged values (duplicate determination) of serial dilutions of the substance with the aid of the Softmax Pro software (version 4.8; Molecular Devices).

[2] = target: T1, TAFIa; assay: TAFIa inhibition at variable preincubation times; format: biochemical; settings: for behaviour of the coefficient of IC50s with increasing pre-incubation time: increasing pre-incubation time (0 to 30 min)
Procedure: The prepared substances were tested for TAFIa inhibition using the Actichrome plasma TAFI Activity Kit from American Diagnostica (Pr. No. 874). This entailed adding 28 μl of assay buffer (20 mM Hepes, 150 mM NaCl, pH 7.4) and 10 μl of TAFIa (American Diagnostica Pr. No. 874TAFIA; 2.5 μg/ml) to 2 μl of 2.5 mM DMSO solution of the substance and incubating in a 96 half-well microtiter plate at room temperature for variable pre-incubation times (0, 5, 15 and 30 minutes). The enzyme reaction was started by adding 10 μl of TAFIa developer (prediluted 1:2 with assay buffer). The time course of the reaction was followed at 420 nm in a microtiter plate reader (SpectraMax plus 384; Molecular Devices) for 15 minutes.
The IC50 values were calculated from the averaged values (duplicate determination) of serial dilutions of the substance with the aid of the Softmax Pro software (version 4.8; Molecular Devices). The coefficient of IC50 values was determined by IC50 value at 0 min over IC50 value at x minutes, wherein x can be 0, 5, 15 or 30 minutes of pre-incubation time.

[3] = example compounds, read-out: IC50

| SMILES | IC50 [1, 3] | behaviour of the coefficient of IC50s with increasing pre-incubation time [2] | Coefficient of IC50s (IC50 value at 0 min/IC50 value at x min preincubation time) ([2]; pre-incubation time 0 min) | Coefficient of IC50s (IC50 value at 0 min/IC50 value at x min preincubation time) ([2]; pre-incubation time 5 min) | Coefficient of IC50s (IC50 value at 0 min/IC50 value at x min preincubation time) ([2]; pre-incubation time 15 min) | Coefficient of IC50s (IC50 value at 0 min/IC50 value at x min preincubation time) ([2]; pre-incubation time 30 min) | IC50 ([1]; comparison examples according to WO2009146802, read-out: IC50 of Comparison examples) |
| --- | --- | --- | --- | --- | --- | --- | --- |
| CC(C)[C@H]1COCCCCOc2ccc(cc2)C[C@@H](NC(=O)N[C@@](C)(Cc2ccc(N)nc2)C(=O)O)C(=O)N1 [Example 1, (S)-3-(6-Amino-pyridin-3-yl)-2-[3-((9S,12R)-9-isopropyl-11-oxo-2,7-dioxa-10-aza-bicyclo[12.2.2]octadeca-1(17),14(18),15-trien-12-yl)-ureido]-2-methyl-propionic acid] | 0.3 nM | – | – | – | – | – | – |
| CC(C)[C@H]1COCCCCOc2ccc(cc2)C[C@@H](NC(=O)N[C@@](C)(C[C@H]2C[C@H](N)C2)C(=O)O)C(=O)N1 [Example 2, (S)-3-trans-(3-Amino-cyclobutyl)-2-[3-((9S,12R)-9-isopropyl-11-oxo-2,7-dioxa-10-aza-bicyclo[12.2.2]octadeca-1(17),14(18),15-trien-12-yl)-ureido]-2-methyl-propionic acid] | 0.3 nM | increases | 1 | 2.9 | 5.8 | 7.7 | – |
| CC(C)[C@H]1COCCCCOc2ccc(cc2)C[C@@H](NC(=O)N[C@@](C)(C[C@@H]2CC[C@@H](N)C2)C(=O)O)C(=O)N1 [Example 3, (S)-3-((1R,3R)-3-Amino-cyclopentyl)-2-[3-((9S,12R)-9-isopropyl-11-oxo-2,7-dioxa-10-aza-bicyclo[12.2.2]octadeca-1(17),14(18),15-trien-12-yl)-ureido]-2-methyl-propionic acid] | 1 nM | – | – | – | – | – | – |
| CC(C)[C@H]1COCCCCOC[C@@H](NC(=O)N[C@@](C)(Cc2ccc(N)nc2)C(=O)O)C(=O)N1 [Example 4, (S)-3-(6-Amino-pyridin-3-yl)-2-[3-((3S,6R)-3-isopropyl-5-oxo-1,8-dioxa-4-aza-cyclododec-6-yl)-ureido]-2-methyl-propionic acid] | 1 nM | – | – | – | – | – | – |
| CC(C)[C@H]1COCCCCOc2ccc(cc2)C[C@@H](NC(=O)N[C@@H](C[C@H]2C[C@H](N)C2)C(=O)O)C(=O)N1 [reference compound] | – | stays nearly constant in time | 1 | 0.5 | 1.3 | 1 | 4 nM |
